Laboratory results as given in PMC7435868, “Structure-Based Virtual Screening, Synthesis and Biological Evaluation of Potential FAK-FAT Domain Inhibitors for Treatment of Metastatic Cancer” (Molecules, 2020).
pIC50: −log10 of the molar value.

Test system: not listed separately
Assay: Microsomal metabolic stability
Conditions: human liver microsomes, 0 min
Protocol: Half-life (t1/2) values were measured at five time points.
Intrinsic clearance values (CLint) with standard error and t1⁄2 values were measured.
The final incubation volume was 50 μL. A minus cofactor control incubation was included for each compound tested where 0.1 M phosphate buffer pH 7.4 was added instead of NADPH (minus NADPH). Two control compounds were included with each species. All incubations were performed singularly for each test compound.
The reactions were stopped by transferring 20 μL of incubate to 60 μL methanol at the appropriate time points. The termination plates were centrifuged at 2500 rpm for 20 min at 4 °C to precipitate the protein.
Following protein precipitation, the sample supernatants were combined in cassettes of up to 4 compounds, the internal standard was added, and samples were analysed using Cyprotex generic LC-MS/MS conditions.
From a plot of ln peak area ratio (compound peak area/internal standard peak area) against time, the gradient of the line was determined.

SMILES | Compound Remaining (% of 0 min), 0 min
CC(C)(C)c1ccc(C(CN)c2ccc(F)cc2)cc1.Cl (centres unmarked) [5c, 2-(4-tert-butylphenyl)-2-(4-fluorophenyl)ethan-1-aminium chloride] | 100 % of 0 min
Cl.NCC(c1ccc(OC(F)(F)F)cc1)c1ccc(OC(F)(F)F)cc1 [5h, 2,2-Bis(4-trifluoromethoxyphenyl)ethan-1-aminium chloride] | 100 % of 0 min

Same assay, conditions: human liver microsomes, 5 min

SMILES | Compound Remaining (% of 0 min), 5 min
CC(C)(C)c1ccc(C(CN)c2ccc(F)cc2)cc1.Cl (centres unmarked) [5c, 2-(4-tert-butylphenyl)-2-(4-fluorophenyl)ethan-1-aminium chloride] | 94.7 % of 0 min
Cl.NCC(c1ccc(OC(F)(F)F)cc1)c1ccc(OC(F)(F)F)cc1 [5h, 2,2-Bis(4-trifluoromethoxyphenyl)ethan-1-aminium chloride] | 102 % of 0 min

Same assay, conditions: human liver microsomes, 15 min

SMILES | Compound Remaining (% of 0 min), 15 min
CC(C)(C)c1ccc(C(CN)c2ccc(F)cc2)cc1.Cl (centres unmarked) [5c, 2-(4-tert-butylphenyl)-2-(4-fluorophenyl)ethan-1-aminium chloride] | 95.0 % of 0 min
Cl.NCC(c1ccc(OC(F)(F)F)cc1)c1ccc(OC(F)(F)F)cc1 [5h, 2,2-Bis(4-trifluoromethoxyphenyl)ethan-1-aminium chloride] | 108 % of 0 min

Same assay, conditions: human liver microsomes, 30 min

SMILES | Compound Remaining (% of 0 min), 30 min
CC(C)(C)c1ccc(C(CN)c2ccc(F)cc2)cc1.Cl (centres unmarked) [5c, 2-(4-tert-butylphenyl)-2-(4-fluorophenyl)ethan-1-aminium chloride] | 86.1 % of 0 min
Cl.NCC(c1ccc(OC(F)(F)F)cc1)c1ccc(OC(F)(F)F)cc1 [5h, 2,2-Bis(4-trifluoromethoxyphenyl)ethan-1-aminium chloride] | 100 % of 0 min

Same assay, conditions: human liver microsomes, 45 min

SMILES | Compound Remaining (% of 0 min), 45 min
CC(C)(C)c1ccc(C(CN)c2ccc(F)cc2)cc1.Cl (centres unmarked) [5c, 2-(4-tert-butylphenyl)-2-(4-fluorophenyl)ethan-1-aminium chloride] | 82.5 % of 0 min
Cl.NCC(c1ccc(OC(F)(F)F)cc1)c1ccc(OC(F)(F)F)cc1 [5h, 2,2-Bis(4-trifluoromethoxyphenyl)ethan-1-aminium chloride] | 95.8 % of 0 min

Same assay, conditions: human liver microsomes, minus NADPH control, 45 min

SMILES | Compound Remaining (% of 0 min), Control
CC(C)(C)c1ccc(C(CN)c2ccc(F)cc2)cc1.Cl (centres unmarked) [5c, 2-(4-tert-butylphenyl)-2-(4-fluorophenyl)ethan-1-aminium chloride] | 98.0 % of 0 min
Cl.NCC(c1ccc(OC(F)(F)F)cc1)c1ccc(OC(F)(F)F)cc1 [5h, 2,2-Bis(4-trifluoromethoxyphenyl)ethan-1-aminium chloride] | 97.8 % of 0 min

Same assay, conditions: human, pooled liver microsomes, pH 7.4

SMILES | half-life at 3 μM [h] | microsomal CLint at 3 μM [µL/min/mg]
CC(C)(C)c1ccc(C(CN)c2ccc(F)cc2)cc1.Cl (centres unmarked) [5c, 2-(4-tert-butylphenyl)-2-(4-fluorophenyl)ethan-1-aminium chloride] | 2.8 | 8.26
Cl.NCC(c1ccc(OC(F)(F)F)cc1)c1ccc(OC(F)(F)F)cc1 [5h, 2,2-Bis(4-trifluoromethoxyphenyl)ethan-1-aminium chloride] | 9.82 | 2.35

Test system: not listed separately
Assay: Turbidimetric aqueous solubility
Type: physicochemical
Conditions: buffered aqueous solution (PBS pH 7.4, 1% DMSO), 37 °C, 2 h
Protocol: Both the estimated precipitation range (lower and upper bound) and a mid-range value were measured. Nicardipine and pyrene were used as control compounds.
The test compound was diluted in buffer to give a range of concentrations (1, 3, 10, 30, and 100 μM; final DMSO concentration 1%) and incubated at 37 °C for 2 hr.
The test compound (10 mM in DMSO) was serially diluted to give solutions of 0.1, 0.3, 1, and 3 mM in DMSO. Each test compound concentration was then further diluted 1 to 100 in buffer (typically 0.01 M phosphate buffered saline pH 7.4) so that the final DMSO concentration was 1%, and the final test compound concentrations were 1, 3, 10, 30, and 100 μM. The experiment was performed at 37 °C and each concentration was incubated in 7 replicate wells. The plates were incubated for 2 h at 37 °C before the absorbance was measured at 620 nm. Nicardipine and pyrene were included as control compounds. The solubility of nicardipine is pH dependent whereas the solubility of pyrene is pH independent.
An estimated precipitation range (lower and upper bound) and a calculated mid-range value were returned, along with any relevant comments, in the form of an Excel spreadsheet.

SMILES | Estimated Precipitation Range, Calculated Mid-Range [µM] | Estimated Precipitation Range, Lower Bound [µM] | Estimated Precipitation Range, Upper Bound [µM]
c1cc2ccc3cccc4ccc(c1)c2c34 [pyrene, reference compound] | 6.5 | 3 | 10
CC(C)(C)c1ccc(C(CN)c2ccc(F)cc2)cc1.Cl (centres unmarked) [5c, 2-(4-tert-butylphenyl)-2-(4-fluorophenyl)ethan-1-aminium chloride] | >100 | 100 | >100
Cl.NCC(c1ccc(OC(F)(F)F)cc1)c1ccc(OC(F)(F)F)cc1 [5h, 2,2-Bis(4-trifluoromethoxyphenyl)ethan-1-aminium chloride] | 65 | 30 | 100

Same assay, conditions: turbidimetric, 37 °C, 2 h

SMILES | Aqueous solubility (in words)
CC(C)(C)c1ccc(C(CN)c2ccc(F)cc2)cc1.Cl (centres unmarked) [5c, 2-(4-tert-butylphenyl)-2-(4-fluorophenyl)ethan-1-aminium chloride] | high aqueous solubility
Cl.NCC(c1ccc(OC(F)(F)F)cc1)c1ccc(OC(F)(F)F)cc1 [5h, 2,2-Bis(4-trifluoromethoxyphenyl)ethan-1-aminium chloride] | moderate solubility

Test system: MIAPaCa2
Assay: Cell viability assay (CellTiter Glo), MIAPaCa2
Type: cell-based
Conditions: Homo sapiens, MIA PaCa-2, 72 h incubation, mean of independent triplicate experiments, read-out: In vitro anti-proliferative activity IC50, MIAPaCa2
Protocol: (§1) The antiproliferative activity of compound I as well as its newly synthesised analogues (5a–i) was evaluated in vitro against the three human breast cancer cell lines MDA-MB-231 (TNBC), T47D (ER^+, HER^−), and BT474 (ER^+, HER^+) as well as a human pancreatic cancer cell line MIAPaCa2. The seeding of the corresponding cell lines started one day before incubation, which lasted for 72 h with the different concentrations of the tested compounds. CellTiter Glo reagent (25 μL) was added to the cell plate. The luminescence was analysed after 10 min using a PerkinElmer Envision instrument. The test compounds were used at ten different triplicate concentrations in half log increments up to 100 μM.

SMILES | pIC50
CC(C)(C)c1ccc(C(CN)c2ccc(F)cc2)cc1.Cl (centres unmarked) [5c, 2-(4-tert-butylphenyl)-2-(4-fluorophenyl)ethan-1-aminium chloride] | 4.82
Cl.NCC(c1ccc(OC(F)(F)F)cc1)c1ccc(OC(F)(F)F)cc1 [5h, 2,2-Bis(4-trifluoromethoxyphenyl)ethan-1-aminium chloride] | 4.40

Test system: MDA-MB-231
Assay: Cell viability assay (CellTiter Glo), MDA-MB-231
Type: cell-based
Conditions: Homo sapiens, 72 h incubation, mean of independent triplicate experiments, read-out: In vitro anti-proliferative activity IC50, MDA-MB-231 ER- PR- HER-
Protocol: as §1

SMILES | pIC50
CC(C)(C)c1ccc(C(CN)c2ccc(F)cc2)cc1.Cl (centres unmarked) [5c, 2-(4-tert-butylphenyl)-2-(4-fluorophenyl)ethan-1-aminium chloride] | 4.89
Cl.NCC(c1ccc(OC(F)(F)F)cc1)c1ccc(OC(F)(F)F)cc1 [5h, 2,2-Bis(4-trifluoromethoxyphenyl)ethan-1-aminium chloride] | 4.89

Test system: T47D
Assay: Cell viability assay (CellTiter Glo), T47D
Type: cell-based, human
Conditions: Homo sapiens, T47D, 72 h, 72 h incubation, mean of independent triplicate experiments, read-out: In vitro anti-proliferative activity IC50, T47D ER+ PR+/- HER-
Protocol: as §1

SMILES | pIC50
CC(C)(C)c1ccc(C(CN)c2ccc(F)cc2)cc1.Cl (centres unmarked) [5c, 2-(4-tert-butylphenyl)-2-(4-fluorophenyl)ethan-1-aminium chloride] | 4.87
Cl.NCC(c1ccc(OC(F)(F)F)cc1)c1ccc(OC(F)(F)F)cc1 [5h, 2,2-Bis(4-trifluoromethoxyphenyl)ethan-1-aminium chloride] | 4.88

Test system: BT474
Assay: Cell viability assay (CellTiter Glo), BT474
Type: cell-based, human
Conditions: Homo sapiens, BT-474, 72 h, 72 h incubation, mean of independent triplicate experiments, read-out: In vitro anti-proliferative activity IC50, BT474 ER+ PR+/- HER+
Protocol: as §1

SMILES | pIC50
CC(C)(C)c1ccc(C(CN)c2ccc(F)cc2)cc1.Cl (centres unmarked) [5c, 2-(4-tert-butylphenyl)-2-(4-fluorophenyl)ethan-1-aminium chloride] | 5.05
Cl.NCC(c1ccc(OC(F)(F)F)cc1)c1ccc(OC(F)(F)F)cc1 [5h, 2,2-Bis(4-trifluoromethoxyphenyl)ethan-1-aminium chloride] | 4.88
